According to patent publication US20240327364A1, “THERAPEUTIC TARGETING OF GPR68 TO INDUCE FERROPTOSIS” (University Of Maryland, Baltimore, priority 2023, published 2024):

How the values were obtained:
[1] = test system: PANC02; test: Scratch migration; format: cell-based; details: 10 μM OGM2, 24 hours
Procedure: In a second study. PANC02 pancreatic cells plated and grown to confluence. Using a P200 tip, cells were denuded and allowed to migrate for 24 hours in DMSO or 10 μM OGM2 and imaged.

[2] = test system: U138 spheroids; test: GBM spheroid assay; format: cell-based, human
Procedure: One thousand cells per well were plated in an ultra-low attachment, round-bottomed, 96-well plate, and spheroids were allowed to form for 3 days. Wells were then exposed to concentrations of vehicle, OGM2 or TMZ or a combination for 3 days. Spheroids were imaged in brightfield at 10× using z-stacks that were collapsed into z-projections in the Gen5 software using the LionheartFx (BioTek™). Automated measurements of the spheroid area were obtained using Gen5 software.
Tumor spheroid cultures are a more physiological model of tumor growth than typical 2D cell culture. Temozolomide sensitive U87 (FIG. 20A) and Temozolomide insensitive U138 (FIG. 20B) glioblastoma cell lines were plated in low attachment round bottom 96-well plates and allowed to form tumor spheroids for 3 days (T0). At T0, spheroids were imaged using Lionheart™ (HCS) High-Content Imaging Systems (Biotek™) and then were exposed to increasing doses of either Temozolomide or OGM2. After 5 days of treatment the spheroids were imaged again (T5). The size (area) of the spheroids after 5 days of treatment was quantified, and the average size of the spheroids at TO is depicted in red.

[3] = biological target: T1, FLT4 (Homo sapiens, UniProt P35916); test: KinomeScan; format: binding; details: read-out: % Control
T1 construct: purchased DiscoveRx (Fremont, CA)

[4] = biological target: T2, ETB (Homo sapiens, UniProt P24530); test: GPCR Profiler; format: cell-based
T2 construct: host or cells: Chem-1 cells expressing Gα15

[5] = biological target: T3, M2 (Homo sapiens, UniProt P08172); test: GPCR Profiler; format: cell-based
T3 construct: host or cells: Chem-1 cells with promiscuous Gα15

[6] = biological target: T4, 5-HT1A (Homo sapiens, UniProt P08908); test: GPCR Profiler; format: cell-based
T4 construct: host or cells: Chem-1 cells with promiscuous Gα15

[7] = biological target: T5, RPS6KA5(Kin.Dom.2-C-terminal) (Homo sapiens, UniProt O75582); test: KinomeScan; format: binding; details: read-out: % Control
T5 construct: RPS6KA5(Kin.Dom.2-C-terminal); purchased DiscoveRx (Fremont, CA)

[8] = biological target: T6, PLK2 (Homo sapiens, UniProt Q9NYY3); test: KinomeScan; format: binding; details: read-out: % Control
T6 construct: purchased DiscoveRx (Fremont, CA)

[9] = biological target: T7, SRPK2 (Homo sapiens, UniProt P78362); test: KinomeScan; format: binding; details: read-out: % Control
T7 construct: purchased DiscoveRx (Fremont, CA)

[10] = biological target: T8, PAF (Homo sapiens, UniProt P25105); test: GPCR Profiler; format: cell-based
T8 construct: host or cells: Chem-1 cells with Gα15

[11] = biological target: T9, D5 (Homo sapiens, UniProt P21918); test: GPCR Profiler; format: cell-based
T9 construct: host or cells: Chem-1 cells expressing Gα15

[12] = biological target: T10, ABL1(F317L)-nonphosphorylated (Homo sapiens, UniProt P00519, F317L); test: KinomeScan; format: binding; details: read-out: % Control
T10 construct: purchased DiscoveRx

[13] = biological target: T11, M3 (Homo sapiens, UniProt P20309); test: GPCR Profiler; format: cell-based
T11 construct: host or cells: Chem-1 cells with promiscuous Gα15

[14] = biological target: T12, MYO3A (Homo sapiens, UniProt Q8NEV4); test: KinomeScan; format: binding; details: read-out: % Control
T12 construct: purchased DiscoveRx

[15] = biological target: T13, LPA3 (Homo sapiens, UniProt Q9UBY5); test: GPCR Profiler; format: cell-based
T13 construct: host or cells: Chem-1 cells with promiscuous Gα15

[16] = biological target: T14, PDGFRB (Homo sapiens, UniProt P09619); test: KinomeScan; format: binding; details: read-out: % Control
T14 construct: purchased DiscoveRx (Fremont, CA)

[17] = biological target: T15, PAC1 (Homo sapiens, UniProt P41586); test: GPCR Profiler; format: cell-based
T15 construct: host or cells: Chem-1 cells with Gα15

[18] = biological target: T16, EGFR(L747-S752del, P753S) (Homo sapiens, UniProt P00533, DEL747-752/P753S); test: KinomeScan; format: binding; details: read-out: % Control
T16 construct: purchased DiscoveRx (Fremont, CA), KinomeScan service

[19] = biological target: T17, ABL1(T315I)-phosphorylated (Homo sapiens, UniProt P00519, T315I); test: KinomeScan; format: binding; details: read-out: % Control
T17 construct: purchased DiscoveRx

[20] = biological target: T18, P2Y4 (Homo sapiens, UniProt P51582); test: GPCR Profiler; format: cell-based
T18 construct: host or cells: Chem-1 cells with Gα15

[21] = biological target: T19, TYRO3 (Homo sapiens, UniProt Q06418); test: KinomeScan; format: binding; details: read-out: % Control
T19 construct: purchased DiscoveRx

[22] = biological target: T20, BRK (Homo sapiens, UniProt Q13882); test: KinomeScan; format: binding; details: read-out: % Control
T20 construct: purchased DiscoveRx (Fremont, CA)

[23] = biological target: T21, DCAMKL3 (Homo sapiens, UniProt Q9C098); test: KinomeScan; format: binding; details: read-out: % Control
T21 construct: purchased DiscoveRx (Fremont, CA), KinomeScan service

[24] = biological target: T22, JAK3(JH1domain-catalytic) (Homo sapiens, UniProt P52333); test: KinomeScan; format: binding; details: read-out: % Control
T22 construct: JAK3(JH1domain-catalytic); purchased DiscoveRx (Fremont, CA)

[25] = biological target: T23, PIK3CA(Q546K) (Homo sapiens, UniProt P42336, Q546K); test: KinomeScan; format: binding; details: read-out: % Control
T23 construct: purchased DiscoveRx (Fremont, CA)

[26] = biological target: T24, SBK1 (Homo sapiens, UniProt Q52WX2); test: KinomeScan; format: binding; details: read-out: % Control
T24 construct: purchased DiscoveRx (Fremont, CA)

[27] = biological target: T25, ABL1(M351T)-phosphorylated (Homo sapiens, UniProt P00519, M351T); test: KinomeScan; format: binding; details: read-out: % Control
T25 construct: purchased DiscoveRx

[28] = biological target: T26, CRF1 (Homo sapiens, UniProt P34998); test: GPCR Profiler; format: cell-based
T26 construct: host or cells: Chem-1 cells with Gα15

[29] = biological target: T27, TNK2 (Homo sapiens, UniProt Q07912); test: KinomeScan; format: binding; details: read-out: % Control
T27 construct: purchased DiscoveRx (Fremont, CA)

T8 sequence (P25105 whole entry): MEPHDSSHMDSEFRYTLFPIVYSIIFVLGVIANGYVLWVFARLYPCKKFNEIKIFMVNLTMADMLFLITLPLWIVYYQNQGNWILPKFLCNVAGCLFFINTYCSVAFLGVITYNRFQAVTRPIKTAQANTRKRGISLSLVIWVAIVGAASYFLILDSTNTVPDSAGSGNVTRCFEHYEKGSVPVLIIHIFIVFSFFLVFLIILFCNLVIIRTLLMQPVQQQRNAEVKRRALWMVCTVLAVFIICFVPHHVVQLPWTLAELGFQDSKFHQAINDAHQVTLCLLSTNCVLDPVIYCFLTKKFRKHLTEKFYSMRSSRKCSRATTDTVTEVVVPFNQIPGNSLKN
T13 sequence (Q9UBY5 whole entry, species assumed): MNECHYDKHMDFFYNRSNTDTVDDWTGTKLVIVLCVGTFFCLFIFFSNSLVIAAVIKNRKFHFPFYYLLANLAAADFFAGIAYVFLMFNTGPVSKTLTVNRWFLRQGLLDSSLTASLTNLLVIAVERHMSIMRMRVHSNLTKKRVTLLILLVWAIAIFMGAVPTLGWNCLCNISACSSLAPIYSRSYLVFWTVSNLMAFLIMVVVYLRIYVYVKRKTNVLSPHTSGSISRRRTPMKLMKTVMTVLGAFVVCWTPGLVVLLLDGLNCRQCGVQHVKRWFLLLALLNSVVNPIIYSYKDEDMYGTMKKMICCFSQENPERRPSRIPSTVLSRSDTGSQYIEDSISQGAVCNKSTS
T3 sequence (P08172 whole entry): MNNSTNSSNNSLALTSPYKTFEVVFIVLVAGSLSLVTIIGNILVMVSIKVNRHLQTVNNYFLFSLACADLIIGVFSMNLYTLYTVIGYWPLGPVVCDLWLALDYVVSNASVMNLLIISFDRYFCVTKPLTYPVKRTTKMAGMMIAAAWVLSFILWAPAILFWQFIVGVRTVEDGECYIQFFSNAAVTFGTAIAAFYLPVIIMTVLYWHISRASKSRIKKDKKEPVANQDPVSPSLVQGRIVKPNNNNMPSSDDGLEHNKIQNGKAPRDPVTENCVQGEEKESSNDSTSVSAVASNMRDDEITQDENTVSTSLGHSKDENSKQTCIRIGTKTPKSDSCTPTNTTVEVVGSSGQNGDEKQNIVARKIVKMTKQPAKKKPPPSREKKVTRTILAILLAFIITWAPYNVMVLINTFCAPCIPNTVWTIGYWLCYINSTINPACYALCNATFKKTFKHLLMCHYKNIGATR
T11 sequence (P20309 whole entry): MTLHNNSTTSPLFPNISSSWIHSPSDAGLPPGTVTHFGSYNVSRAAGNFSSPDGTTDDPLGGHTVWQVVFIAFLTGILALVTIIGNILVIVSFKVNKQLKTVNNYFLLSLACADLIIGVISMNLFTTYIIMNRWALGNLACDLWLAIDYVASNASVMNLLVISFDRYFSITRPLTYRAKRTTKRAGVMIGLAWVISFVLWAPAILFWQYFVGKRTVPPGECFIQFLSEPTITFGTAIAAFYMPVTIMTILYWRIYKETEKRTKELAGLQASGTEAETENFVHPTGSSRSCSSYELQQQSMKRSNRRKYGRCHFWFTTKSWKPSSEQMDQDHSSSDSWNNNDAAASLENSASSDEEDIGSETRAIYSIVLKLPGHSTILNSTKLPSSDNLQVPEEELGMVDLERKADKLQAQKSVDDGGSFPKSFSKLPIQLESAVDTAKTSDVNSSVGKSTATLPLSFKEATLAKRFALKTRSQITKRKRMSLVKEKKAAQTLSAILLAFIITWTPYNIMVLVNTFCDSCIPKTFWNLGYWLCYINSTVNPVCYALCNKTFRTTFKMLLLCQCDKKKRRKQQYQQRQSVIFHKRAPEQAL
T9 sequence (P21918 whole entry): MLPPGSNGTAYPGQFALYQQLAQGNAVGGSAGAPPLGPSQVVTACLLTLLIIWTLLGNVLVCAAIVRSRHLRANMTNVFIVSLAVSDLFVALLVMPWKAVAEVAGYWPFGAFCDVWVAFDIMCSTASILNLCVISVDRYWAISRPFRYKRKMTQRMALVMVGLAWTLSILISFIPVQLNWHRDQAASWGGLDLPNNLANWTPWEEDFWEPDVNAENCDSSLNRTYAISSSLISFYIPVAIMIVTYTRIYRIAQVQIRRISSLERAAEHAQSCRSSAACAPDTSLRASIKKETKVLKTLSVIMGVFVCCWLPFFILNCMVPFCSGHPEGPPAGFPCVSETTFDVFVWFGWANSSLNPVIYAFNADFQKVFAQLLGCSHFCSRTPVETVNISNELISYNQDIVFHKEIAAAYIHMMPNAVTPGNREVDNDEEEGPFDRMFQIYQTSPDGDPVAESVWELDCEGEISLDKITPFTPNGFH
T26 sequence (P34998 24-415): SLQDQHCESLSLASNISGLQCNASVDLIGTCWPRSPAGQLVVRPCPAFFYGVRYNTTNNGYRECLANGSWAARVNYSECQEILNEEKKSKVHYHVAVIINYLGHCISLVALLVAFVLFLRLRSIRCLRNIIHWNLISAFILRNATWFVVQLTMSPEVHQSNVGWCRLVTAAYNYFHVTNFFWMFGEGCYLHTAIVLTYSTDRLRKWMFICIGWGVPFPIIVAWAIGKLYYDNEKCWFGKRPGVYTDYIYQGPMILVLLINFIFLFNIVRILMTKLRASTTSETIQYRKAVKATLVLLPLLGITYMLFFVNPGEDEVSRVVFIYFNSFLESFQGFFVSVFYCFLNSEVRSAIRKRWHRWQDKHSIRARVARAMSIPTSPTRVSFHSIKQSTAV
T18 sequence (P51582 whole entry, species assumed): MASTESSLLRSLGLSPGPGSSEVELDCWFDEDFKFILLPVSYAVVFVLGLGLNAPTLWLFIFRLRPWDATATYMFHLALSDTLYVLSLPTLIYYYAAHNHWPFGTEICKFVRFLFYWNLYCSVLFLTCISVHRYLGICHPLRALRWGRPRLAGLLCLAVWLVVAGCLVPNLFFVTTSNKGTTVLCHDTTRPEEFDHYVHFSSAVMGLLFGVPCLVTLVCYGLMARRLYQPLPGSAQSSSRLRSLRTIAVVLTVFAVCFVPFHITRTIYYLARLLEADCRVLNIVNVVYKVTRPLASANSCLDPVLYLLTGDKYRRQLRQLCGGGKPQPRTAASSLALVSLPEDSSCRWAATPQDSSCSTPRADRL
T15 sequence (P41586 21-468): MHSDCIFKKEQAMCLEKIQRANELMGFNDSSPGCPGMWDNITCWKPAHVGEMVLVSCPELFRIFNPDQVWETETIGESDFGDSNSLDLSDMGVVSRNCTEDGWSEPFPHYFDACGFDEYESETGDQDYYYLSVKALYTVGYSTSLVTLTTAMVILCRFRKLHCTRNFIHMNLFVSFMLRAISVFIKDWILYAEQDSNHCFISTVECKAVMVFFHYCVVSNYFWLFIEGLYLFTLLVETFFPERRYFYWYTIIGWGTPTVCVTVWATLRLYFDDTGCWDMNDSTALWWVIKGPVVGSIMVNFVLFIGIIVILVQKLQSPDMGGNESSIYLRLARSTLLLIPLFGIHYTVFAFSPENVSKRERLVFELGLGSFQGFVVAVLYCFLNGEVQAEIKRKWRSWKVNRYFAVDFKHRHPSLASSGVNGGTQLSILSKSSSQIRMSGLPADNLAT
T2 sequence (P24530 27-442): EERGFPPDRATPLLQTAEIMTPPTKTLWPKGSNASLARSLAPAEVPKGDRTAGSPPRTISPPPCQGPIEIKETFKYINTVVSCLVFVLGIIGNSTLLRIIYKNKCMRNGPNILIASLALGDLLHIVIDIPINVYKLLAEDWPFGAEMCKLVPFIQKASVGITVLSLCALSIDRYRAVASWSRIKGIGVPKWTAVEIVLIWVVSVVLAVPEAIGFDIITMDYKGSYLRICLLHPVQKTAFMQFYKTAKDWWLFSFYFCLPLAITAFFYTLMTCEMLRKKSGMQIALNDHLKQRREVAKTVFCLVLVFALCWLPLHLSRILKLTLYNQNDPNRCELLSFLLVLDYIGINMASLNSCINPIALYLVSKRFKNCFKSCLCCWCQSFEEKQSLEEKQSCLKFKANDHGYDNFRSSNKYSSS
T4 sequence (P08908 whole entry): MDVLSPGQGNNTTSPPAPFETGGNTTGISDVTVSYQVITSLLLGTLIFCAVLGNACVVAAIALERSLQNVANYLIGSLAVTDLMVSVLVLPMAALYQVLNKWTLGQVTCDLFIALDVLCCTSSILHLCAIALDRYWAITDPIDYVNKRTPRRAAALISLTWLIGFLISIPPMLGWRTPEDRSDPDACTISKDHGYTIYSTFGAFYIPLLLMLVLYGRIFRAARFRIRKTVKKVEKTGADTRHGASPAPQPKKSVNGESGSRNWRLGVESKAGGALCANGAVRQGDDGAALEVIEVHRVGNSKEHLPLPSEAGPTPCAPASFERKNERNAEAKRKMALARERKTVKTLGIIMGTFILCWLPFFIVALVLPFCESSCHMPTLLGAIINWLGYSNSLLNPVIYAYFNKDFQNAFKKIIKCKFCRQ
T21 sequence (Q9C098 whole entry): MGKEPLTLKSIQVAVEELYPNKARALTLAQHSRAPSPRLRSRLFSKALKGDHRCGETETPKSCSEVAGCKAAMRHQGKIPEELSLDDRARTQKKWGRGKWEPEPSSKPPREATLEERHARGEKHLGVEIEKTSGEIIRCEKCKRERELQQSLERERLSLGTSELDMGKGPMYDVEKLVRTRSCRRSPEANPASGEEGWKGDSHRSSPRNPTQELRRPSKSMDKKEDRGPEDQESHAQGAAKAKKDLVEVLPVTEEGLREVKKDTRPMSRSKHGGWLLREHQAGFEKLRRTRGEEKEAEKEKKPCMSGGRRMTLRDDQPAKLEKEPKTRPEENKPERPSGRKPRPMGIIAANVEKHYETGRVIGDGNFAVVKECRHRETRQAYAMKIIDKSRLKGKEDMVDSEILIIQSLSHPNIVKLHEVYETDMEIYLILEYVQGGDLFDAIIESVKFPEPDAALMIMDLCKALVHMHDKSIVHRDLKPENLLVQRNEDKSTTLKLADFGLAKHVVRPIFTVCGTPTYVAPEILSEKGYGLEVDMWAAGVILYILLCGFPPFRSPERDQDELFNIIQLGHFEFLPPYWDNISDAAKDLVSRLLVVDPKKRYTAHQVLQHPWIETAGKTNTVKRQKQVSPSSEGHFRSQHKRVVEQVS

CCc1ccc2c(c1)C1(NN=C(c3ccccc3)S1)C(=O)N2 (stereo not drawn) [OGM2]
migration [1]: significantly reduced migration
growth of 3D spheroids [2]: significantly decreased the growth of U138 3D spheroids

CCc1ccc2c(c1)C1(NN=C(c3cccc4ccccc34)S1)C(=O)N2 (stereo not drawn) [OGM1, 5-ethyl-5′-naphthalen-1-ylspiro[1H-indole-3,2′-3H-1,3,4-thiadiazole]-2-one]
remaining binding at 10 µM [3]: 100%
Antagonism ([4]; 10 uM): −1.6
Agonism ([4]; 12.5 uM): 9.1
Antagonism ([5]; 10 uM): 3.3
Agonism ([5]; 12.5 uM): −0.1
Antagonism ([6]; 10 uM): −7.5
Agonism ([6]; 12.5 uM): −0.8
remaining binding at 10 µM [7]: 91%
remaining binding at 10 µM [8]: 100%
remaining binding at 10 µM [9]: 100%
Antagonism ([10]; 10 uM): 6.6
Agonism ([10]; 12.5 uM): 0.4
Antagonism ([11]; 10 uM): −17.8
Agonism ([11]; 12.5 uM): −1.8
remaining binding at 10 µM [12]: 96%
Antagonism ([13]; 10 uM): −1.9
Agonism ([13]; 12.5 uM): 0.7
remaining binding at 10 µM [14]: 95%
Antagonism ([15]; 10 uM): 1.1
Agonism ([15]; 12.5 uM): 0.3
remaining binding at 10 µM [16]: 72%
Antagonism ([17]; 10 uM): 5.8
Agonism ([17]; 12.5 uM): 0.9
remaining binding at 10 µM [18]: 99%
remaining binding at 10 µM [19]: 72%
Antagonism ([20]; 10 uM): 5.4
Agonism ([20]; 12.5 uM): −0.8
remaining binding at 10 µM [21]: 100%
remaining binding at 10 µM [22]: 100%
remaining binding at 10 µM [23]: 100%
remaining binding at 10 µM [24]: 84%
remaining binding at 10 µM [25]: 95%
remaining binding at 10 µM [26]: 100%
remaining binding at 10 µM [27]: 84%
Antagonism ([28]; 10 uM): 4.6
Agonism ([28]; 12.5 uM): −0.1
remaining binding at 10 µM [29]: 100%
